In data set [1] the test system is in vitro epithelial tissue model (EpiAirway™). In words: Drug permeation (Papp) in the in vitro epithelial tissue model. An excerpt:
(§1) A. A “kit” of 24 EpiAirway™ units can routinely be employed for evaluating five different formulations, each of which is applied to quadruplicate wells. Each well is employed for determination of permeation kinetics (4 time points), transepithelial electrical resistance (TER). An additional set of wells is employed as controls, which are sham treated during determination of permeation kinetics, but are otherwise handled identically to the test sample-containing units for determinations of transepithelial resistance and viability.
(§2) B. In all experiments, the mucosal delivery formulation to be studied is applied to the apical surface of each unit in a volume of 100 μL, which is sufficient to cover the entire apical surface. An appropriate volume of the test formulation at the concentration applied to the apical surface (no more than 100 μL is generally needed) is set aside for subsequent determination of concentration of the active material by ELISA or other designated assay.
(§3) D. In order to minimize potential sources of error and avoid any formation of concentration gradients, the units are transferred from one 0.9 mL-containing well to another at each time point in the study. These transfers are made at the following time points, based on a zero time at which the 100 μL volume of test material was applied to the apical surface: 15 minutes, 30 minutes, 60 minutes, and 120 minutes.
(§4) F. At the completion of each time point, the medium is removed from the well from which each unit was transferred, and aliquotted into two tubes (one tube receives 700 μL and the other 200 μL) for determination of the concentration of permeated test material and, in the event that the test material is cytotoxic, for release of the cytosolic enzyme, lactate dehydrogenase, from the epithelium. These samples are kept in the refrigerator if the assays are to be conducted within 24 hours, or the samples are subaliquotted and kept frozen at −80° C. until thawed once for assays. Repeated freeze-thaw cycles are to be avoided.
(§5) EIA kit (p/n S-1178(EIAH6101) was purchased from Peninsula Laboratories Inc. (Division of BACHEM, San Carlos, Calif., 800-922-1516). 17×120 mm polypropylene conical tubes (p/n 352097, Falcon, Franklin Lakes, N.J.) were used for all sample preparations. Eight standards were used for PTH quantitation. The rest of the assay procedure was the same as the kit inserts.
(§6) The instant study was designed to evaluate the effect of PN159 itself or in combination with additional permeation enhancers on PTH permeation. The PN159 concentrations evaluated are 25, 50, and 100 μM. The additional permeation enhancers are 45 mg/ml M-β-CD, 1 mg/ml DDPC, and 1 mg/ml EDTA. Sorbitol was used as a tonicifier (146-190 mM) to adjust the osmolarity of formulations to 220 mOsm/kg. The formulation pH was fixed at 4.5. PTH was chosen as a model peptide in this example. 2 mg/ml PTH was combined with PN159 with or without additional permeation enhancers. The combination was tested using an in vitro epithelial tissue model to monitor PTH permeation, transepithelial electrical resistance (TER), and the cytotoxicity of the formulation by LDH assay.
(§7) The concentrations of MC-4RA in the basolateral media was analyzed by the RP-HPLC using a C18 RP chromatography with a flow rate of 1 mL/minute and a column temperature of 25° C. • Solvent A: 0.1% TFA in water; Solvent B: 0.1% TFA in ACN • Injection Volume: 50 μL • Detection: 220 nm • RUN TIME: 15 MIN
(§8) Galantamine concentration in the formulation and in the basolateral media (permeation samples) was determined using an isocratic LC (Waters Alliance) method with UV detection. • Column: Waters Symmetry Shield, C18, 5 um, 25×0.46 cm • Mobile phase: 5% ACN in 50 mM ammonium formate, pH 3.0 • Flow rate: 1 ml/min • Column temperature: 30° C. • Calibration curve: 0-400 μg/ml Galantamine HBr • Detection: UV at 285 nm

Assay in data set [2]: as above
Particulars: human, pH 5, Papp.
From the text: as §1, §2, §3, §4, §5, §6, §7, §8

[3] abbreviates: [PN159] 0 μM, galantamine 40 mg/mL pH 5.0, calcitonin 1 mg/mL pH 3.5, PTH1-34 1 mg/mL pH 4.5, PYY3-36 1 mg/mL pH 5.0.
Where [4] appears, read: [PN159] 25 μM, galantamine 40 mg/mL pH 5.0, calcitonin 1 mg/mL pH 3.5, PTH1-34 1 mg/mL pH 4.5, PYY3-36 1 mg/mL pH 7.0.
[5] abbreviates: [PN159] 50 μM, galantamine 40 mg/mL pH 5.0, calcitonin 1 mg/mL pH 3.5, PTH1-34 1 mg/mL pH 4.5.
The mark [6] stands for this setting: [PN159] 100 μM, galantamine 40 mg/mL pH 5.0, calcitonin 1 mg/mL pH 3.5, PTH1-34 1 mg/mL pH 4.5, PYY3-36 1 mg/mL pH 7.0.

Read-outs that look alike come from different tables or passages of the source.

Regarding `CC(C)C[C@H](NC(=O)[C@H](CCCCN)NC(=O)CNC(=O)[C@H](CC(C)C)NC(=O)[C@@H](NC(=O)[C@@H]1CSSC[C@H](N)C(=O)N[C@@H](CO)C(=O)N[C@@H](CC(N)=O)C(=O)N[C@@H](CC(C)C)C(=O)N[C@@H](CO)C(=O)N[C@@H]([C@@H](C)O)C(=O)N1)C(C)C)C(=O)N[C@@H](CO)C(=O)N[C@@H](CCC(N)=O)C(=O)N[C@@H](CCC(=O)O)C(=O)N[C@@H](CC(C)C)C(=O)N[C@@H](Cc1c[nH]cn1)C(=O)N[C@@H](CCCCN)C(=O)N[C@@H](CC(C)C)C(=O)N[C@@H](CCC(N)=O)C(=O)N[C@H](C(=O)N[C@@H](Cc1ccc(O)cc1)C(=O)N1CCC[C@H]1C(=O)N[C@@H](CCCNC(=N)N)C(=O)N[C@H](C(=O)N[C@@H](CC(N)=O)C(=O)N[C@H](C(=O)NCC(=O)N[C@@H](CO)C(=O)NCC(=O)N[C@H](C(=O)N1CCC[C@H]1C(N)=O)[C@@H](C)O)[C@@H](C)O)[C@@H](C)O)[C@@H](C)O` [Calcitonin, salmon calcitonin], the “fold increase in Papp in the presence of PN159” value (“fold increase in Papp” for short) in data set [1] is recorded as 23-47 fold. The Papp – broadly, a coefficient for how fast a substance crosses the barrier – in data set [1] (setting [3]) is 0.097 ×10⁻⁶ cm/s; in data set [1] ([PN159] 0 μM, galantamine 40 mg/mL pH 5.0, calcitonin 1 mg/mL pH 3.5, PTH1-34 1 mg/mL pH 4.5, PYY3-36 1 mg/mL pH 5.0, listed as calcitonin), “about 1×10^−7 cm/s”; in data set [1] (setting [4]) it was 2.2 ×10⁻⁶ cm/s; in data set [1] (setting [5]), 3.3 ×10⁻⁶ cm/s.

Regarding `COc1ccc2c3c1O[C@H]1C[C@@H](O)C=C[C@@]31CCN(C)C2` [Galantamine, galantamine], the “fold increase in Papp” value in data set [1] (PN159 25-100 vs drug alone) was 2.5-3.5 fold. Moreover, the Papp in data set [1] (setting [3]) was 2.1 ×10⁻⁶ cm/s. Further, the Papp A→B (commonly how fast a substance crosses the layer from the apical side) at 120 min, 40 mg/mL was around 2.1 ×10⁻⁶ cm/s in data set [2] (setting [3]), 5.1 ×10⁻⁶ cm/s in data set [2] (setting [4]), 6.2 ×10⁻⁶ cm/s in data set [2] (setting [5]) and 7.2 ×10⁻⁶ cm/s in data set [2] (setting [6]).

With `CC[C@H](C)[C@H](NC(=O)[C@H](CCC(=O)O)NC(=O)[C@H](CO)NC(=O)[C@@H](NC(=O)[C@@H](N)CO)C(C)C)C(=O)N[C@@H](CCC(N)=O)C(=O)N[C@@H](CC(C)C)C(=O)N[C@@H](CCSC)C(=O)N[C@@H](Cc1cnc[nH]1)C(=O)N[C@@H](CC(N)=O)C(=O)N[C@@H](CC(C)C)C(=O)NCC(=O)N[C@@H](CCCCN)C(=O)N[C@@H](Cc1cnc[nH]1)C(=O)N[C@@H](CC(C)C)C(=O)N[C@@H](CC(N)=O)C(=O)N[C@@H](CO)C(=O)N[C@@H](CCSC)C(=O)N[C@@H](CCC(=O)O)C(=O)N[C@@H](CCCN=C(N)N)C(=O)N[C@H](C(=O)N[C@@H](CCC(=O)O)C(=O)N[C@@H](Cc1c[nH]c2ccccc12)C(=O)N[C@@H](CC(C)C)C(=O)N[C@@H](CCCN=C(N)N)C(=O)N[C@@H](CCCCN)C(=O)N[C@@H](CCCCN)C(=O)N[C@@H](CC(C)C)C(=O)N[C@@H](CCC(N)=O)C(=O)N[C@@H](CC(=O)O)C(=O)N[C@H](C(=O)N[C@@H](Cc1cnc[nH]1)C(=O)N[C@@H](CC(N)=O)C(=O)N[C@@H](Cc1ccccc1)C(=O)O)C(C)C)C(C)C` [PTH1-34, human parathyroid hormone 1-34], in data set [1], the “fold increase in Papp” value was 3-5 fold. Also, the figures for the Papp in data set [1] (setting [3]), in data set [1] (setting [4]) and in data set [1] (setting [6]) were 0.11 ×10⁻⁶ cm/s, 0.34 ×10⁻⁶ cm/s and 0.43 ×10⁻⁶ cm/s, respectively.
